Data as given in patent US7998973B2 (AVEO Pharmaceuticals, Inc., priority 2009, dated 2011).
Read-outs that look alike come from different tables or passages of the source.

Key:
[1] = cited from earlier work
[2] = pharmacokinetics in the human body; format: in vivo; conditions: for accumulation: human
Source text: Serum levels reach steady state after about 2-3 weeks.
Therefore, […] is expected to exert physiological effects after temsirolimus has been cleared.

[3] = target: VEGF receptor 3 (Homo sapiens, UniProt P35916); conditions: cited from earlier work
Chain of VEGF receptor 3 (P35916 25-1363): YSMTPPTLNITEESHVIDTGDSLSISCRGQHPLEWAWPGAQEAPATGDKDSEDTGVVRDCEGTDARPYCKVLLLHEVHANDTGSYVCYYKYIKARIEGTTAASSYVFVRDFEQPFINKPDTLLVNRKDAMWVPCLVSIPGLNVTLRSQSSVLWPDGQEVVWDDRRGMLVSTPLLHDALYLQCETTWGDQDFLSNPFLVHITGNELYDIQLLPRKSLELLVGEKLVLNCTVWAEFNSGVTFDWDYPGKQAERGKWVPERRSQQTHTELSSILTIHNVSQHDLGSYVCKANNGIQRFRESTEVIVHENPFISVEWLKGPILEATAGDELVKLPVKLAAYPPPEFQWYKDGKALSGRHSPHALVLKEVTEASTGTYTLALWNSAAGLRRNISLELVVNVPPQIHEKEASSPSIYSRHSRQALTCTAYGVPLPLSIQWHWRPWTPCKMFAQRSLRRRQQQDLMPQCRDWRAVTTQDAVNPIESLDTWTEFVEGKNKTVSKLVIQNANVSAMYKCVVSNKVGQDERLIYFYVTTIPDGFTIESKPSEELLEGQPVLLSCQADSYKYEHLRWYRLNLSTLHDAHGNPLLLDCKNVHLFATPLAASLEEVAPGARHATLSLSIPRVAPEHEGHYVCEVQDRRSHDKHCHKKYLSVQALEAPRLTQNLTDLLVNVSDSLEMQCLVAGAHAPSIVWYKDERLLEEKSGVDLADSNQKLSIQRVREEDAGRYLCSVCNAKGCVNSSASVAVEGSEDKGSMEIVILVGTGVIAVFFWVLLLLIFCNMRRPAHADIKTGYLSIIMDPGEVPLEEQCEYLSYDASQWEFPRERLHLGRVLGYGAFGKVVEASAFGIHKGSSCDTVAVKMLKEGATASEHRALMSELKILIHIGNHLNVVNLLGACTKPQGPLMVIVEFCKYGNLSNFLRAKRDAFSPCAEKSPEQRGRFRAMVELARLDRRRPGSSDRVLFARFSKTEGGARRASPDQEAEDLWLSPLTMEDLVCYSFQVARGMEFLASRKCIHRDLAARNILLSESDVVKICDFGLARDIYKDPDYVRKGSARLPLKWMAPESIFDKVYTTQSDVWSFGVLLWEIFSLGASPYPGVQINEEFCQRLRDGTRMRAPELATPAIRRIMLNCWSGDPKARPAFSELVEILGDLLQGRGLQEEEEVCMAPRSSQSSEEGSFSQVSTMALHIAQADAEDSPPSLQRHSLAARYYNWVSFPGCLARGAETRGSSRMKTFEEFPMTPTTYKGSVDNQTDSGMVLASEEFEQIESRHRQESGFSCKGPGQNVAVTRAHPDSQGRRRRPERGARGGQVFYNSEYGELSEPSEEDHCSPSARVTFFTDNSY

[4] = preclinical models; cited from earlier work
[5] = cited from earlier work; remark: listed apart in the source

| Compound | half-life relative to parent compound temsirolimus ([1]; primary metabolite of temsirolimus) | accumulation [2] | half-life ([1]; human body) | inhibitory activity [3] | antitumor activity [4] | time for serum levels to reach steady state ([2]; chronic dosing) | half-life ([2]; serum, human body) [h] | interim results ([5]; 272-patient Phase 2 clinical trial) | most common side effects ([5]; Phase 1 and Phase 2 clinical trials) | dose at which safety had been established ([5]; previous trials, 4 weeks on, 2 weeks off or 3 weeks on, 1 week off) [mg/day] |
| --- | --- | --- | --- | --- | --- | --- | --- | --- | --- | --- |
| CO[C@H]1C[C@@H]2CC[C@@H](C)[C@@](O)(O2)C(=O)C(=O)N2CCCC[C@H]2C(=O)O[C@H]([C@H](C)C[C@@H]2CC[C@@H](O)[C@H](OC)C2)CC(=O)[C@H](C)/C=C(\C)[C@@H](O)[C@@H](OC)C(=O)[C@H](C)C[C@H](C)/C=C/C=C/C=C/1C [sirolimus] | about three times that of the parent compound | – | – | – | – | – | – | – | – | – |
| CO[C@H]1C[C@@H]2CC[C@@H](C)[C@@](O)(O2)C(=O)C(=O)N2CCCC[C@H]2C(=O)O[C@H]([C@H](C)C[C@@H]2CC[C@@H](OC(=O)C(C)(CO)CO)[C@H](OC)C2)CC(=O)[C@H](C)/C=C(\C)[C@@H](O)[C@@H](OC)C(=O)[C@H](C)C[C@H](C)/C=C/C=C/C=C/1C [temsirolimus, 42-(3-hydroxy-2-(hydroxymethyl)-2-methylpropanoate) rapamycin] | – | does not appear to accumulate more than would be expected based on its half life | approximately 17 hours | – | – | – | – | – | – | – |
| COc1cc2nccc(Oc3ccc(NC(=O)Nc4cc(C)on4)c(Cl)c3)c2cc1OC [tivozanib, N-{2-chloro-4-[(6,7-dimethoxy-4-quinolyl)oxy]-phenyl}-N′-(5-methyl-3-isoxazolyl)urea] | – | accumulates in the serum after chronic dosing to a degree that would be expected based on its half-life | – | picomolar inhibitory activity | exhibits antitumor activity | 2-3 weeks | 91.2 to 113 | positive interim results | hypertension and dysphonia | 1.5 |
